Earlier results in US12165861B2, “Mass spectrometry method for measuring vitamin B6 in body fluid” (Quest Diagnostics Investments Incorporated, priority 2007, dated 2024).

- time to plasma peak (100 mg of vitamin B6, under normal conditions): 2 h
- half-life (100 mg of vitamin B6, under normal conditions, plasma): 8 h
- change in plasma PLP (doses of over 25 mg): little change
Substance: vitamin B6
